# Test results from PubChem BioAssay (NCI).
#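 Each compound was tested at five concentrations against cells in 96-well plates for 48 hours. The concentration for full growth arrest is given as TGI.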
# Experiments:
# Assay in all cases: DTP human tumour cell line panel, 48 h
# SK-MEL-28 melanoma = system: SK-MEL-28 melanoma
# MALME-3M melanoma = system: MALME-3M melanoma
# HCT-15 colon = system: HCT-15 colon
# RPMI-8226 leukemia = system: RPMI-8226 leukemia
# ACHN renal = system: ACHN renal
# 786-0 renal = system: 786-0 renal
# A498 renal = system: A498 renal
# CCRF-CEM leukemia = system: CCRF-CEM leukemia
# U251 CNS = system: U251 CNS
# OVCAR-8 ovarian = system: OVCAR-8 ovarian
# BT-549 breast = system: BT-549 breast
# NCI-H226 lung = system: NCI-H226 lung
# UACC-62 melanoma = system: UACC-62 melanoma
# SF-268 CNS = system: SF-268 CNS
# SN12C renal = system: SN12C renal
# SW-620 colon = system: SW-620 colon
# IGROV1 ovarian = system: IGROV1 ovarian
# MDA-N = system: MDA-N
# NCI-H522 lung = system: NCI-H522 lung
# SR leukemia = system: SR leukemia
# HS 578T breast = system: HS 578T breast
# COLO 205 colon = system: COLO 205 colon
# HCC-2998 colon = system: HCC-2998 colon
# NCI-H23 lung = system: NCI-H23 lung
# NCI/ADR-RES ovarian = system: NCI/ADR-RES ovarian
# HL-60(TB) leukemia = system: HL-60(TB) leukemia
# SK-MEL-2 melanoma = system: SK-MEL-2 melanoma
# MOLT-4 leukemia = system: MOLT-4 leukemia
# K-562 leukemia = system: K-562 leukemia
# MCF7 breast = system: MCF7 breast
# PC-3 prostate = system: PC-3 prostate
# HCT-116 colon = system: HCT-116 colon
# SF-539 CNS = system: SF-539 CNS
# UACC-257 melanoma = system: UACC-257 melanoma
# LOX IMVI melanoma = system: LOX IMVI melanoma
# SK-MEL-5 melanoma = system: SK-MEL-5 melanoma
# NCI-H460 lung = system: NCI-H460 lung
# MDA-MB-231 breast = system: MDA-MB-231 breast
# TK-10 renal = system: TK-10 renal
# HOP-92 NSCLC = system: HOP-92 NSCLC
# OVCAR-3 ovarian = system: OVCAR-3 ovarian
# EKVX NSCLC = system: EKVX NSCLC
# SNB-19 CNS = system: SNB-19 CNS
# CAKI-1 renal = system: CAKI-1 renal
# DU-145 prostate = system: DU-145 prostate
# SK-OV-3 ovarian = system: SK-OV-3 ovarian
# RXF 393 renal = system: RXF 393 renal
# UO-31 renal = system: UO-31 renal
# HOP-62 NSCLC = system: HOP-62 NSCLC
# M14 melanoma = system: M14 melanoma
# SNB-75 CNS = system: SNB-75 CNS
# KM12 colon = system: KM12 colon
# T-47D breast = system: T-47D breast
# OVCAR-5 ovarian = system: OVCAR-5 ovarian
# A549 NSCLC = system: A549 NSCLC
# HT29 colon = system: HT29 colon
# OVCAR-4 ovarian = system: OVCAR-4 ovarian
# MDA-MB-435 = system: MDA-MB-435
# SF-295 CNS = system: SF-295 CNS
compound,measurement,setting,value
Nc1c2c(nc3ccccc13)CCCCCC2,TGI,SK-MEL-28 melanoma,30 µM
same,TGI,MALME-3M melanoma,32.6 µM
same,TGI,HCT-15 colon,> 100 µM
same,TGI,RPMI-8226 leukemia,43.8 µM
same,TGI,ACHN renal,86.3 µM
same,TGI,786-0 renal,30 µM
same,TGI,A498 renal,74 µM
same,TGI,CCRF-CEM leukemia,52.4 µM
same,TGI,U251 CNS,80.2 µM
same,TGI,OVCAR-8 ovarian,> 100 µM
same,TGI,BT-549 breast,> 100 µM
same,TGI,NCI-H226 lung,> 100 µM
same,TGI,UACC-62 melanoma,33.7 µM
same,TGI,SF-268 CNS,> 100 µM
same,TGI,SN12C renal,> 100 µM
same,TGI,SW-620 colon,50.1 µM
same,TGI,IGROV1 ovarian,> 100 µM
same,TGI,MDA-N,30.4 µM
same,TGI,NCI-H522 lung,56.3 µM
same,TGI,SR leukemia,38 µM
same,TGI,HS 578T breast,> 100 µM
same,TGI,COLO 205 colon,30.6 µM
same,TGI,HCC-2998 colon,27.4 µM
same,TGI,NCI-H23 lung,> 100 µM
same,TGI,NCI/ADR-RES ovarian,> 100 µM
same,TGI,HL-60(TB) leukemia,31.6 µM
same,TGI,SK-MEL-2 melanoma,29.2 µM
same,TGI,MOLT-4 leukemia,85 µM
same,TGI,K-562 leukemia,69 µM
same,TGI,MCF7 breast,> 100 µM
same,TGI,PC-3 prostate,> 100 µM
same,TGI,HCT-116 colon,64.1 µM
same,TGI,SF-539 CNS,32.3 µM
same,TGI,UACC-257 melanoma,31.1 µM
same,TGI,LOX IMVI melanoma,31.8 µM
same,TGI,SK-MEL-5 melanoma,31.3 µM
same,TGI,NCI-H460 lung,38.9 µM
same,TGI,MDA-MB-231 breast,42.5 µM
same,TGI,TK-10 renal,35.1 µM
same,TGI,HOP-92 NSCLC,32.1 µM
COc1ccc(-c2c3c(nc4nc(SCCc5ccccc5)nc(N)c24)CCCC3)cc1OC,TGI,SK-MEL-28 melanoma,> 100 µM
same,TGI,MALME-3M melanoma,> 100 µM
same,TGI,OVCAR-3 ovarian,> 100 µM
same,TGI,HCT-15 colon,> 100 µM
same,TGI,RPMI-8226 leukemia,> 100 µM
same,TGI,ACHN renal,> 100 µM
same,TGI,CCRF-CEM leukemia,> 100 µM
same,TGI,U251 CNS,> 100 µM
same,TGI,EKVX NSCLC,> 100 µM
same,TGI,SNB-19 CNS,> 100 µM
same,TGI,CAKI-1 renal,> 100 µM
same,TGI,OVCAR-8 ovarian,> 100 µM
same,TGI,DU-145 prostate,> 100 µM
same,TGI,SK-OV-3 ovarian,> 100 µM
same,TGI,BT-549 breast,> 100 µM
same,TGI,UACC-62 melanoma,> 100 µM
same,TGI,SF-268 CNS,> 100 µM
same,TGI,SN12C renal,> 100 µM
same,TGI,RXF 393 renal,> 100 µM
same,TGI,SW-620 colon,> 100 µM
same,TGI,IGROV1 ovarian,> 100 µM
same,TGI,MDA-N,> 100 µM
same,TGI,UO-31 renal,> 100 µM
same,TGI,SR leukemia,> 100 µM
same,TGI,HS 578T breast,> 100 µM
same,TGI,COLO 205 colon,> 100 µM
same,TGI,HOP-62 NSCLC,> 100 µM
same,TGI,NCI-H23 lung,> 100 µM
same,TGI,NCI/ADR-RES ovarian,> 100 µM
same,TGI,M14 melanoma,> 100 µM
same,TGI,HL-60(TB) leukemia,> 100 µM
same,TGI,MOLT-4 leukemia,> 100 µM
same,TGI,K-562 leukemia,> 100 µM
same,TGI,MCF7 breast,> 100 µM
same,TGI,PC-3 prostate,> 100 µM
same,TGI,HCT-116 colon,> 100 µM
same,TGI,SNB-75 CNS,> 100 µM
same,TGI,SF-539 CNS,> 100 µM
same,TGI,KM12 colon,> 100 µM
same,TGI,T-47D breast,> 100 µM
same,TGI,OVCAR-5 ovarian,> 100 µM
same,TGI,A549 NSCLC,> 100 µM
same,TGI,HT29 colon,> 100 µM
same,TGI,UACC-257 melanoma,> 100 µM
same,TGI,LOX IMVI melanoma,> 100 µM
same,TGI,SK-MEL-5 melanoma,> 100 µM
same,TGI,OVCAR-4 ovarian,> 100 µM
same,TGI,NCI-H460 lung,> 100 µM
same,TGI,MDA-MB-231 breast,> 100 µM
same,TGI,TK-10 renal,> 100 µM
same,TGI,MDA-MB-435,> 100 µM
same,TGI,SF-295 CNS,> 100 µM
CN1CCCCC1CCN1CCCCC1 (stereo not drawn),TGI,SK-MEL-28 melanoma,> 100 µM
same,TGI,MALME-3M melanoma,> 100 µM
same,TGI,OVCAR-3 ovarian,> 100 µM
same,TGI,HCT-15 colon,> 100 µM
same,TGI,RPMI-8226 leukemia,> 100 µM
same,TGI,ACHN renal,> 100 µM
same,TGI,786-0 renal,> 100 µM
same,TGI,A498 renal,> 100 µM
same,TGI,U251 CNS,> 100 µM
same,TGI,EKVX NSCLC,> 100 µM
same,TGI,SNB-19 CNS,> 100 µM
same,TGI,CAKI-1 renal,> 100 µM
same,TGI,OVCAR-8 ovarian,> 100 µM
same,TGI,DU-145 prostate,> 100 µM
same,TGI,SK-OV-3 ovarian,> 100 µM
same,TGI,BT-549 breast,> 100 µM
same,TGI,NCI-H226 lung,> 100 µM
same,TGI,UACC-62 melanoma,> 100 µM
same,TGI,SF-268 CNS,> 100 µM
same,TGI,SN12C renal,> 100 µM
same,TGI,RXF 393 renal,> 100 µM
same,TGI,SW-620 colon,> 100 µM
same,TGI,IGROV1 ovarian,> 100 µM
same,TGI,MDA-N,> 100 µM
same,TGI,UO-31 renal,> 100 µM
same,TGI,NCI-H522 lung,> 100 µM
same,TGI,HS 578T breast,> 100 µM
same,TGI,COLO 205 colon,> 100 µM
same,TGI,HCC-2998 colon,> 100 µM
same,TGI,HOP-62 NSCLC,> 100 µM
same,TGI,NCI-H23 lung,> 100 µM
same,TGI,NCI/ADR-RES ovarian,> 100 µM
same,TGI,M14 melanoma,> 100 µM
same,TGI,HL-60(TB) leukemia,> 100 µM
same,TGI,SK-MEL-2 melanoma,> 100 µM
same,TGI,MOLT-4 leukemia,> 100 µM
same,TGI,K-562 leukemia,> 100 µM
same,TGI,MCF7 breast,> 100 µM
same,TGI,PC-3 prostate,> 100 µM
same,TGI,HCT-116 colon,> 100 µM
same,TGI,SNB-75 CNS,> 100 µM
same,TGI,KM12 colon,> 100 µM
same,TGI,T-47D breast,> 100 µM
same,TGI,OVCAR-5 ovarian,> 100 µM
same,TGI,A549 NSCLC,> 100 µM
same,TGI,HT29 colon,> 100 µM
same,TGI,UACC-257 melanoma,> 100 µM
same,TGI,LOX IMVI melanoma,> 100 µM
same,TGI,SK-MEL-5 melanoma,> 100 µM
same,TGI,OVCAR-4 ovarian,> 100 µM
same,TGI,NCI-H460 lung,> 100 µM
same,TGI,MDA-MB-231 breast,> 100 µM
same,TGI,TK-10 renal,> 100 µM
same,TGI,HOP-92 NSCLC,> 100 µM
same,TGI,MDA-MB-435,> 100 µM
same,TGI,SF-295 CNS,> 100 µM
